# In patent US20110009335A1, “Anticancer Treatments” (priority 2008, published 2011):
# Experiments:
# [1] = tested on: CAKI-1 human renal tumor xenograft; assay: Aplidine with temsirolimus, CAKI-1 xenograft in athymic nude mice (Example 4); type: in vivo; settings: for % Inhibition G4: temsirolimus 10 mg/kg/day; for % Inhibition G3: temsirolimus 20 mg/kg/day
# Description: Female athymic nude mice (Harlan Sprague Dawley, Madison, Wis.) were utilized for all experiments. Mice were implanted with a cell suspension when mice were 6-8 weeks of age. Animals were housed in ventilated rack caging with food and water ad libitum. The mice were acclimated for at least 5 days prior to tumor implantation. […] The tumor model used in this study was CAKI-1, which was implanted in the animals as disclosed in Example 2.
# Tumor measurements were determined as disclosed in Example 1. When tumor growth was within an average size range of 140±34 mg (mean±SD), mice were randomized into the treatment and control groups based on tumor weight by using LabCat® In Life module V 8.0 SP1 tumor tracking and measurement software.
# The treatment of CAKI-1-tumor-bearing mice was initiated on DPI (Day Post Implantation) 21. Body weights were recorded on treatment days and when tumor sizes were measured. In those days wherein the two drugs were administered the same day, the combination therapy groups were treated by co-administering the two drugs at the same time, with no attempt to sequence the treatments.
# Aplidine was provided in the form of vials of lyophilized aplidine powder which was reconstituted in Cremophor EL/ethanol/water (CEW) 15/15/70 to a concentration of 0.5 mg/ml. The aplidine solution in CEW was diluted in 0.9% Saline to the dosing formulation concentrations, being the final proportion of CEW of 0.18/0.18/0.84.
# Temsirolimus was provided in the form of vials containing a non-aqueous, ethanolic, sterile solution of temsirolimus, 25 mg/ml. […] Then, the solution was further diluted in 0.9% Saline to the dosing formulation concentrations.
# Tumor size measurements were recorded twice weekly from the treatment initiation until the termination of the study. Tumor growth inhibition was assessed comparing the mean tumor weight between the two agents in combination (aplidine and temsirolimus) against temsirolimus mean tumor weight at the different concentrations assayed.
# (§1) Mean, standard deviation and standard error of the mean were determined for tumor volume for all animal groups at all assessments. Student's t test was performed on tumor volumes at each measurement day, including at the end of the study, to determine whether there were any statistically significant differences between combination treatment groups and single monotherapy treatment groups.
# The definition and criteria for the evaluation of potentiation and the degree of additivity for the combination therapy were the same as those disclosed in Example 1.
# [2] = tested on: A498 human renal tumor xenograft; assay: Aplidine with sorafenib, A498 xenograft in athymic nude mice (Example 1); type: in vivo
# Description: Female athymic nude mice (Harlan Sprague Dawley, Madison, Wis.) were utilized for all experiments. Mice were implanted with tumor fragments or a cell suspension when mice were 5 weeks of age. Animals were housed in ventilated rack caging, 5 mice per cage, with food and water ad libitum. The mice were acclimated for 1 week prior to being implanted with tumor fragments or cell suspensions.
# A498 cells were grown in MEM, 2 mM L-glutamine and 10% FBS. Cells from in vitro passage 4-20 were implanted SC into study mice: 5×10^6 cells/mouse in 0.2 ml 50% Matrigel/50% medium without antibiotics or serum, using a 23 G needle and 1 cc syringe. Matrigel is a biological extracellular matrix that is liquid at 4° C. and solid at 37° C., and it promotes tumor growth by maintaining the cells in close association in a localized area. Bacterial cultures were performed on aliquots of the cells prepared for implantation.
# Tumor measurements were determined by using Vernier calipers. The formula to calculate volume for a prolate ellipsoid was used to estimate tumor volume (mm^3) from 2-dimensional tumor measurements: Tumor volume (mm^3)=[L×W^2]÷2, where L is the length and it is the longest diameter in mm, and W is the width and it is the shortest diameter in mm of a tumor. Assuming unit density, volume was converted to weight (i.e., 1 mm^3=1 mg).
# Body weights were recorded on treatment days and when tumor sizes were measured. In those days wherein the two drugs were administered the same day, the combination therapy groups were treated by co-administering the two drugs at the same time, with no attempt to sequence the treatments.
# Aplidine was provided in the form of vials of lyophilized aplidine powder which was reconstituted in Cremophor EL/ethanol/water (CEW) 15/15/70 to a concentration of 0.5 mg/ml. Then the aplidine solution in CEW was diluted in 0.9% Saline to the dosing formulation concentrations, being the final proportion of CEW of 0.18/0.18/0.84.
# Tumor size measurements were recorded twice weekly from the treatment initiation until the termination of the study.
# as §1
# Determine the % of tumor growth inhibition, as 100−% T/C, for each of the drugs administered as monotherapy at the doses used in the combinations. % T/C was obtained by comparing the mean tumor weight in the treatment groups (T) to the mean tumor weight in the control group (C) (T/C×100%). • 2. The two scores were added together to determine the “expected response” if each agent produced the same response as it did when administered as monotherapy. • 3. This “expected response” was subtracted from the % of tumor growth inhibition determined for the combination therapy group: • a. A negative number meant that the effect of combining the two drugs was less than additive. • b. If the resulting number was close to zero, the effect of combining the two drugs was determined as additive. • c.
# [3] = G3: temsirolimus 20 mg/kg/day IP
# [4] = G4: temsirolimus 10 mg/kg/day IP
# [5] = aplidine 0.040 and/or sorafenib 30 mg/kg/day
# [6] = aplidine 0.060 and/or sorafenib 60 mg/kg/day
structure (smiles),measurement,setting,value
CO[C@H]1C[C@@H]2CC[C@@H](C)[C@@](O)(O2)C(=O)C(=O)N2CCCC[C@H]2C(=O)O[C@H]([C@H](C)C[C@@H]2CC[C@@H](OC(=O)C(C)(CO)CO)[C@H](OC)C2)CC(=O)[C@H](C)/C=C(\C)[C@@H](O)[C@@H](OC)C(=O)[C@H](C)C[C@H](C)/C=C/C=C/C=C/1C [temsirolimus],% T/C on day 21,[1]; [3],98.3%
same,% T/C on day 24,[1]; [3],76.7%
same,% T/C on day 27,[1]; [3],75.3%
same,% T/C on day 30,[1]; [3],47.0%
same,% T/C on day 34,[1]; [3],42.2%
same,% T/C on day 38,[1]; [3],48.0%
same,% T/C on day 42,[1]; [3],51.9%
same,% T/C on day 45,[1]; [3],58.9%
same,% T/C on day 48,[1]; [3],63.6%
same,% T/C on day 56,[1]; [3],75.3%
same,% T/C on day 58,[1]; [3],78.8%
same,% T/C on day 21,[1]; [4],95.7%
same,% T/C on day 24,[1]; [4],69.9%
same,% T/C on day 27,[1]; [4],81.3%
same,% T/C on day 30,[1]; [4],53.2%
same,% T/C on day 34,[1]; [4],50.4%
same,% T/C on day 38,[1]; [4],51.1%
same,% T/C on day 42,[1]; [4],60.3%
same,% T/C on day 45,[1]; [4],66.7%
same,% T/C on day 48,[1]; [4],66.2%
same,% T/C on day 56,[1]; [4],73.4%
same,% T/C on day 58,[1]; [4],76.5%
same,% Inhibition G4,[1]; day 21,4.3%
same,% Inhibition G4,[1]; day 24,30.1%
same,% Inhibition G4,[1]; day 27,18.7%
same,% Inhibition G4,[1]; day 30,46.8%
same,% Inhibition G4,[1]; day 34,49.6%
same,% Inhibition G4,[1]; day 38,48.9%
same,% Inhibition G4,[1]; day 42,39.7%
same,% Inhibition G4,[1]; day 45,33.3%
same,% Inhibition G4,[1]; day 48,33.8%
same,% Inhibition G4,[1]; day 56,26.6%
same,% Inhibition G4,[1]; day 58,23.5%
same,% Inhibition G3,[1]; day 21,1.7%
same,% Inhibition G3,[1]; day 24,23.3%
same,% Inhibition G3,[1]; day 27,24.7%
same,% Inhibition G3,[1]; day 30,53.0%
same,% Inhibition G3,[1]; day 34,57.8%
same,% Inhibition G3,[1]; day 38,52.0%
same,% Inhibition G3,[1]; day 42,48.1%
same,% Inhibition G3,[1]; day 45,41.1%
same,% Inhibition G3,[1]; day 48,36.4%
same,% Inhibition G3,[1]; day 56,24.7%
same,% Inhibition G3,[1]; day 58,21.2%
same,antitumor activity as single agent (monotherapy),[1]; temsirolimus 10 and 20 mg/kg/day,did not meet the NCI criteria for activity
CNC(=O)c1cc(Oc2ccc(NC(=O)Nc3ccc(Cl)c(C(F)(F)F)c3)cc2)ccn1 [sorafenib],% T/C on day 26,[2]; [5],97.0%
same,% T/C on day 29,[2]; [5],97.4%
same,% T/C on day 33,[2]; [5],76.6%
same,% T/C on day 36,[2]; [5],84.2%
same,% T/C on day 40,[2]; [5],98.7%
same,% T/C on day 43,[2]; [5],70.1%
same,% T/C on day 47,[2]; [5],91.2%
same,% T/C on day 50,[2]; [5],85.9%
same,% T/C on day 54,[2]; [5],105.9%
same,% T/C on day 61,[2]; [5],89.6%
same,% T/C on day 26,[2]; [6],97.4%
same,% T/C on day 29,[2]; [6],87.8%
same,% T/C on day 33,[2]; [6],80.2%
same,% T/C on day 36,[2]; [6],68.6%
same,% T/C on day 40,[2]; [6],82.9%
same,% T/C on day 43,[2]; [6],51.4%
same,% T/C on day 47,[2]; [6],74.9%
same,% T/C on day 50,[2]; [6],71.1%
same,% T/C on day 54,[2]; [6],78.7%
same,% T/C on day 61,[2]; [6],81.3%
